This passage reports MIC, retained initial activity and antibacterial activity results from US6593319B1, “Fusidic acid derivatives” (Leo Pharmaceutical Products, Ltd. A/S, priority 2001, dated 2003).

Converted amounts (≈) assume the structure as drawn.

One data set deals with C. diphteria/62001. The experiment in a line: MIC, microtitter plates, liquid medium containing broth. As to conditions: read-out: MIC values (concentrations in μg/ml required for 90% inhibition). The data set is classed as cell-based. The method, then:
(§1) In vitro investigations have evidenced high potency of compounds of the invention against several bacteria including staphylococci, streptococci, corynebacteriae and mycobacteriae. […] The biological tests are conducted on microtitter plates using liquid medium containing broth.

The subject of data set [1] is E. faecalis/V583 P. Cour. Described as above. Format: cell-based. Particulars: Enterococcus faecalis, VanR, read-out: MIC values (concentrations in μg/ml required for 90% inhibition). The method, then: as §1
The test system of a further data set is M. tuberculosis/R 498. The description is as above. Particulars: Mycobacterium tuberculosis, read-out: MIC values (concentrations in μg/ml required for 90% inhibition). The data set is classed as cell-based. How it is done: as §1
The subject of a further data set is N. gonorrhoea/C1. The description is as above. The data set is classed as cell-based. As to conditions: read-out: MIC values (concentrations in μg/ml required for 90% inhibition). How it is done: as §1
In another data set the test system is N. meningitidis/K1. The data set is described as above. Format: cell-based. As to conditions: Neisseria meningitidis, read-out: MIC values (concentrations in μg/ml required for 90% inhibition). The method, then:
as §1

For the next data set, the system named is P. acnes/1060. The description is as above. As to conditions: Cutibacterium acnes, read-out: MIC values (concentrations in μg/ml required for 90% inhibition). Format: cell-based. How it is done: as §1
In the next data set the test system is S. aureus/1 Aus-pe. Described as above. The data set is classed as cell-based. Particulars: Staphylococcus aureus, FusS, MRSA, read-out: MIC values (concentrations in μg/ml required for 90% inhibition). The method, then: as §1
Another data set deals with S. aureus/22 DK. Described as above. The data set is classed as cell-based. As to conditions: Staphylococcus aureus, FusS, MSSA, read-out: MIC values (concentrations in μg/ml required for 90% inhibition). The method, then:
as §1

A further data set has as its system S. aureus/54 USA-br. Described as above. The data set is classed as cell-based. Particulars: Staphylococcus aureus, FusR, MSSA, read-out: MIC values (concentrations in μg/ml required for 90% inhibition). How it is done: as §1
A further data set concerns S. aureus/ATCC 29213. Described as above. The data set is classed as cell-based. Particulars: Staphylococcus aureus, ATCC 29213 / MSSA, FusS, read-out: MIC values (concentrations in μg/ml required for 90% inhibition). How it is done:
as §1

A further data set concerns Staphylococcus/291-2. The data set is described as above. Format: cell-based. As to conditions: Staphylococcus/291-2, coagulase negative, FusS, read-out: MIC values (concentrations in μg/ml required for 90% inhibition). How it is done:
as §1

The next data set deals with Staphylococcus/379-2. Described as above. The data set is classed as cell-based. As to conditions: Staphylococcus/379-2, coagulase negative, FusR, read-out: MIC values (concentrations in μg/ml required for 90% inhibition). The method, then:
as §1

Data set [2] relates to Streptococcus - gr.A/67011. The data set is described as above. Format: cell-based. As to conditions: read-out: MIC values (concentrations in μg/ml required for 90% inhibition). The method, then: as §1
In a further data set the test system is Streptococcus - gr.B/61. Described as above. The data set is classed as cell-based. As to conditions: read-out: MIC values (concentrations in μg/ml required for 90% inhibition). The method, then: as §1
In a further data set the test system is Streptococcus - gr.C/68. Described as above. As to conditions: read-out: MIC values (concentrations in μg/ml required for 90% inhibition). The data set is classed as cell-based. How it is done:
as §1

For the next data set, the system named is Streptococcus - gr.G/59. The description is as above. Format: cell-based. As to conditions: read-out: MIC values (concentrations in μg/ml required for 90% inhibition). The method, then:
as §1

The next data set relates to S. aureus ATCC2977. In words: MIC, agar diffusion method (European Pharmacopoeia 3rd Ed.). Format: cell-based. As to conditions: Staphylococcus aureus, read-out: MIC values (concentrations in μg/ml required for 90% inhibition). The method, then:
(§2) The antibacterial activity of some of these compounds relative to fusidic acid appears from Table 2 showing MIC values for compounds of the invention. The method used is recommended by the European Pharmacopoeia 3rd Ed. (1997) for testing the potency of antibiotics. It is an agar diffusion method where the same volume of the tested solution is added to cavities in agar. The inhibition zones are a function of the concentration of the fusidic acid analogue used. All assays are run with fusidic acid (1) as the reference substance. The results in Table 2 differ from those of Table 1 due to the different experimental methods used.

The test system of the next data set is S. aureus ATCC6538P. Described as above. Format: cell-based. As to conditions: Staphylococcus aureus, read-out: MIC values (concentrations in μg/ml required for 90% inhibition). The method, then: as §2
The test system of the next data set is S. aureus Leo id. CJ232. The data set is described as above. The data set is classed as cell-based. Particulars: Staphylococcus aureus, S. aureus Leo id. CJ232, MRSA, read-out: MIC values (concentrations in μg/ml required for 90% inhibition). The method, then:
as §2

The next data set has as its system S. aureus Leoid CJ234(R). The description is as above. Format: cell-based. Particulars: Staphylococcus aureus, MRSA and Rifampicin resistant, read-out: MIC values (concentrations in μg/ml required for 90% inhibition). The method, then: as §2
Data set [3] deals with Strep. epidermis A. ATCC12228. Described as above. As to conditions: read-out: MIC values (concentrations in μg/ml required for 90% inhibition). The data set is classed as cell-based. The method, then: as §2
Data set [4] deals with Strep. faecalis ATCC10541. Described as above. The data set is classed as cell-based. As to conditions: Enterococcus faecalis, read-out: MIC values (concentrations in μg/ml required for 90% inhibition). How it is done:
as §2

The subject of data set [5] is Strep. faecium Leo id. E119(P). The data set is described as above. The data set is classed as cell-based. As to conditions: Enterococcus faecium, Penicillin resistant, read-out: MIC values (concentrations in μg/ml required for 90% inhibition). How it is done:
as §2

Data set [6] deals with Strep. sp. Gr.B Leo id. EF6. Described as above. The data set is classed as cell-based. Particulars: read-out: MIC values (concentrations in μg/ml required for 90% inhibition). How it is done: as §2
A short description of data set [7]: Stability in ethanol solution (retained activity). The data set is classed as physicochemical. As to conditions: solution in ethanol stored at 0° C. for 1 month.
For data set [8] the following is noted: relative to fusidic acid; reduction of C-24/C-25 and C-17/C-20 double bonds; cited from earlier work.

With `CC(=O)O[C@H]1C[C@@]2(C)[C@@H](C[C@@H](O)[C@H]3[C@@]4(C)CC[C@@H](O)[C@@H](C)[C@@H]4CC[C@@]32C)/C1=C(\CCC=C(C)C)C(=O)O` [Fusidic acid (1), Fusidic acid], the MIC in the data set on C. diphteria/62001 is 0.063 µg/mL (≈ 0.122 µM); in data set [1], 16 µg/mL (≈ 31 µM); in the data set with M. tuberculosis/R 498, greater than 16 µg/mL; with N. gonorrhoea/C1, 1 µg/mL (≈ 1.94 µM); with N. meningitidis/K1, 0.25 µg/mL (≈ 0.484 µM); with P. acnes/1060, 0.125 µg/mL (≈ 0.242 µM). For the same molecule, the MIC with S. aureus/1 Aus-pe came to 1 µg/mL (≈ 1.94 µM); in the data set with S. aureus/22 DK it was 0.5 µg/mL (≈ 0.968 µM); in the data set on S. aureus/54 USA-br it was 8 µg/mL (≈ 15.5 µM); in the data set with S. aureus/ATCC 29213, 1 µg/mL (≈ 1.94 µM); in the data set with Staphylococcus/291-2, 1 µg/mL (≈ 1.94 µM); in the data set with Staphylococcus/379-2 it was 64 µg/mL (≈ 124 µM). Moreover, the MIC in data set [2] is 16 µg/mL (≈ 31 µM); with Streptococcus - gr.B/61, 32 µg/mL (≈ 61.9 µM); with Streptococcus - gr.C/68 it was 2 µg/mL (≈ 3.87 µM); in the data set on Streptococcus - gr.G/59, 4 µg/mL (≈ 7.74 µM); in the data set with S. aureus ATCC2977 it was 0.01 µg/mL (≈ 0.0194 µM); in the data set on S. aureus ATCC6538P, 0.013 µg/mL (≈ 0.0252 µM). Besides, the MIC turned out to be 0.012 µg/mL (≈ 0.0232 µM) with S. aureus Leo id. CJ232; 0.01 µg/mL (≈ 0.0194 µM) in the data set with S. aureus Leoid CJ234(R); 0.01 µg/mL (≈ 0.0194 µM) in [3]; 4.9 µg/mL (≈ 9.48 µM) in data set [4]; 2.7 µg/mL (≈ 5.23 µM) in data set [5]; 4.9 µg/mL (≈ 9.48 µM) in data set [6]. The retained initial activity result in [7] is listed as “about 70%”.

For tetrahydrofusidic acid, the antibacterial activity result in [8] was “almost complete loss of activity”.
